The results in this text go back to BindingDB's records for doi:10.3109/14756366.2012.681651 (East China University of Science and Technology, 2013).

The structures appear in SMILES notation.

The target in this assay is Ribosomal protein S6 kinase alpha-3 (Homo sapiens, UniProt P51812). In words: RSK2 Inhibition Assay. To be noted: pH 7.4; 25 °C. As to the method: The inhibition assays against RSK2 in vitro were determined by ADP Quest® (DiscoveRx) in 96-well flat-bottom plates according to the manufacturer's instructions [Lu et al., J. Med. Chem., 54:3564-3574]. The kinase (20 ng millipore) in 40 μL assay buffer (15 mM HEPES, pH 7.4, 20 mM NaCl, 1 mM EGTA, 0.02% Tween 20, 10 mM MgCl2, and 0.1 mg/mL BGG) containing 25 μM S6 peptide (AKRRRLSSLRA, Anaspec) was incubated for 20 min at room temperature with indicated concentrations of the compounds to be tested. Reactions were initiated by adding 10 μL of ATP to a final ATP concentration of 10 μM and terminated after 60 min at room temperature by adding 20 μL ADP Reagent A and 40 μL ADP Reagent B. Ro31-8220 was used as a positive control. Compounds dilutions were prepared from stock in DMSO and diluted with assay buffer for inhibition assay. The fluorescence signal detecting the amount of ADP produced as a result of enzyme activity was recorded on the Synergy™ 2 Multi-Mode Microplate Reader (BioTek) at an excitation wavelength of 530 nm and an emission wavelength of 590 nm at 30 min after the addition of the ADP Reagent B.
Ribosomal protein S6 kinase alpha-3, sequence (P51812 whole entry): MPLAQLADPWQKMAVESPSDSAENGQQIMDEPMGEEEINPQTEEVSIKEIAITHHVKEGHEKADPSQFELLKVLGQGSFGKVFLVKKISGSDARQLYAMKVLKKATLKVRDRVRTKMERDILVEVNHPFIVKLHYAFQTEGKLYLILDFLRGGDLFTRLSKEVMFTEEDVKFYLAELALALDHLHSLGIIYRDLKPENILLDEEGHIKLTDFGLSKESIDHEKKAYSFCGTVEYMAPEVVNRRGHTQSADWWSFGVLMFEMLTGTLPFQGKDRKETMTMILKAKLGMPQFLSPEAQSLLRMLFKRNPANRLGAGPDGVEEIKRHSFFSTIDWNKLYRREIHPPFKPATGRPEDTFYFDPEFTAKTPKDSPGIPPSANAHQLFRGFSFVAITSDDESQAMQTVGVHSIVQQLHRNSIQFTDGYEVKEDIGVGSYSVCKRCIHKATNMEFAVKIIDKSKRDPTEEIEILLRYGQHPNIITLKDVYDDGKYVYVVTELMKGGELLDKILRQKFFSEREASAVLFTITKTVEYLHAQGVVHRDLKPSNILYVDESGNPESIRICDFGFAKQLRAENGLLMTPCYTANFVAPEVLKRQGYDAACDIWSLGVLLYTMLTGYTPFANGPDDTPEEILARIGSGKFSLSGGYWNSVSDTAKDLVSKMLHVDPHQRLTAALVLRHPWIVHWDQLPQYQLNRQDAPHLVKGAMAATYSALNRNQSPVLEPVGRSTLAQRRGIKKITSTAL

As a reminder, the IC50 is the concentration needed to halve the response being measured. In the case of `O=C1NC(=S)NC(=O)C1=NNc1ccc(O)cc1` [5-(2-(4-Hydroxyphenyl)hydrazono)-dihydro-2-thioxopyrimidine-4,6(1H,5H)-dione (14)], the IC50 was found to be 2.19 µM. As for `O=C1NC(=O)C(=NNc2ccc(O)cc2)C(=O)N1` [5-(2-(4-Hydroxyphenyl)hydrazono)pyrimidine-2,4,6(1H,3H,5H)-trione (9)], the IC50 worked out at 1.95 µM. For the compound `O=C1NC(=O)C(=NNc2ccc(N3CCOCC3)cc2)C(=O)N1` [5-(2-(4-Morpholinophenyl)hydrazono)pyrimidine-2,4,6(1H,3H,5H)-trione (13)], the IC50 stood at 5.11 µM. With `O=C1NC(=S)NC(=O)C1=NNc1ccc(N2CCOCC2)cc1` [5-(2-(4-Morpholinophenyl)hydrazono-dihydro-2-thioxopyrimidine-4,6(1H,5H)-dione (15)], the IC50 is 9.23 µM.
